Assay results: US7728158B2, “PPAR activity regulators” (Ajinomoto Co., Inc., priority 2006, dated 2010)

What was measured:
PPAR-α = target: T1, PPAR-α (Homo sapiens, UniProt Q07869); experiment: PPAR-α reporter assay (GAL4 luciferase, CV-1 cells); assay type: cell-based; details: induction ratio of luciferase activity at 50 μM, activity without tested compound = 1, hGR-GAL4-hPPAR-α
T1 construct: expressed in transfected cells; host or cells: CV-1 (African green monkey kidney)
T1 sequence (Q07869 167-468): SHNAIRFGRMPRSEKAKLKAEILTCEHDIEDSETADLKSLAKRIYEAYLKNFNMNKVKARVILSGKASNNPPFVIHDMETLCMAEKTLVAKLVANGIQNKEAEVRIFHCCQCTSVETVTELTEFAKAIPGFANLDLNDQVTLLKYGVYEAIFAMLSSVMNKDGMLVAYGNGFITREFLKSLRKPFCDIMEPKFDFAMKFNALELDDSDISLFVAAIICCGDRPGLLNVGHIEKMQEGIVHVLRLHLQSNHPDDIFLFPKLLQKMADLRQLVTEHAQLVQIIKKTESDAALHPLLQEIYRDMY
Method: The reporter assay of PPAR (peroxisome proliferator-activated receptor)-α was conducted by using the following plasmids in accordance with the known report (Steven A. Kliwer et al., The Journal of Biological Chemistry Vol. 270, No. 22: 12953-12956, 1995).
As luciferase expressing plasmid, used was the plasmid which introduces the sequence wherein 5 yeast GAL4 binding sequences, UAS (upstream activating sequence), are tandemly connected to the upstream of the thymidine kinase promoter of pTAL-Luc (#6252-1, produced by Clontech) (UAS×5-TK-Luc) (1).
(§1) As PPAR-α receptor expressing plasmid, used was the plasmid which introduces the N-terminal domain of human GR (1-76aa), the yeast GAL4 DNA binding domain (1-147aa) and PPAR-α ligand binding domain (167-468aa) to NotI site and SalI site of pExchange-1 core vector (#211176, produced by Stratagene) (hGR-GAL4-hPPAR-α) (2). The plasmid mixed solution used in the reporter assay of PPAR-α contains above (1), (2) and plasmid pcDNA3.1(−) as a carrier in the weight ratio of 4:1:3.
The medium having the following composition was used for seeding cell line CV-1 used in the reporter assay, derived from the kidney of an African green monkey, on the plate; and for diluting the tested compounds. Used was Dulbecco modified Eagle medium (D2902 without phenol red, produced by SIGMA) to which 3.7 g/L of NaHCO3, 3.5 g/L of D-glucose and 10% v/v fetal bovine serum were added.
(§2) CV-1 cells were seeded on the 384-well white plate (781080, produced by Greiner) to become 1.5×10^4 cells/30 μL per one well. Then, gene transfer was conducted in accordance with the manual by using OPTI-MEM I (11058-021, produced by GIBCO), FuGENE6 (1-815-075, produced by Roche) and the above PPAR-α plasmid mixed solution. The incubation was conducted in a carbon-dioxide incubator at 37° C. for 6 to 8 hours. Then, a diluted tested compound was added thereto and incubated in a carbon-dioxide incubator at 37° C. for 16 to 18 hours. Britelite (6016979, produced by PerkinElmer) was further added thereto and stirred, and the luciferase activity was measured with EnVision (produced by PerkinElmer).
(§3) Specifying the luciferase activity without addition of a tested compound as 1, the induction ratio of the luciferase activity by each tested compound was calculated.

PPAR-γ = target: T2, PPAR-γ (Homo sapiens, UniProt P37231); experiment: PPAR-γ reporter assay (GAL4 luciferase, CV-1 cells); assay type: cell-based; details: induction ratio of luciferase activity at 25 μM, activity without tested compound = 1, hGR-GAL4-hPPAR-γ
T2 construct: expressed in transfected cells; host or cells: CV-1 (African green monkey kidney)
T2 sequence (P37231 204-505): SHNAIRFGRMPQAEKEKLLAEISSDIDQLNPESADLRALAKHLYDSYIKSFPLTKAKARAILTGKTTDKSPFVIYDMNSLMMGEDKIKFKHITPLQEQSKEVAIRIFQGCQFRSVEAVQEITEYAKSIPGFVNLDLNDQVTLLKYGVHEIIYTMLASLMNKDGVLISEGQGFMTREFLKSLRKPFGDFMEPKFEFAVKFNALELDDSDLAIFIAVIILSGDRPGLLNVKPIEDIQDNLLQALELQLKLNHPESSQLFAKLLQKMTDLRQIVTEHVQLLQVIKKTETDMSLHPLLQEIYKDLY
Method: The reporter assay of PPAR-γ was conducted by using the following plasmids in accordance with the known report (Steven A. Kliwer et al., The Journal of Biological Chemistry Vol. 270, No. 22: 12953-12956, 1995).
As luciferase expressing plasmid, used was the plasmid which introduces the sequence wherein 5 yeast GAL4 binding sequences, UAS, are tandemly connected to the upstream of the thymidine kinase promoter of pTAL-Luc (#6252-1, produced by Clontech) (UAS×5-TK-Luc) (1).
as §1, with “As PPAR-γ” for “As PPAR-α”, “and PPAR-γ2” for “and PPAR-α”, “domain (204-505aa)” for “domain (167-468aa)”, “Stratagene) (hGR-GAL4-hPPAR-γ)” for “Stratagene) (hGR-GAL4-hPPAR-α)”, “of PPAR-γ” for “of PPAR-α”
as §2, with “PPAR-γ” for “PPAR-α”
as §3

Structure (SMILES)	PPAR-α induction ratio (PPAR-α)	PPAR-γ induction ratio (PPAR-γ)
CCCCCCCCCCCC(=O)N[C@@H](Cc1ccc(Cl)cc1)C(=O)O [Example 42]	14.4	6.6
CCCCCCCCCCCC(=O)N[C@@H](Cc1csc2ccccc12)C(=O)O [Example 43]	3.0	2.2
CCCCCCCCCCCC(=O)NC1(C(=O)O)CCCCCC1 [Example 44]	6.2	6.7
